Drawing on patent US9353089B2, “Compositions and methods for the treatment of malaria” (Saint Louis University, priority 2013, dated 2016), this text covers IC50 and inhibition of growth for 24 compounds.

Like-named read-outs stand apart in the source and are kept apart here.

For assay [1], the system named is Plasmodium falciparum 3D7 (CQ-sensitive). Briefly: In vitro antimalarial assay (malaria SYBR Green I-based fluorescence, MSF), 3D7. Type of assay: cell-based. The conditions noted are these: for inhibition of growth at 1 µM: 3D7, 72 h, read-out: 3D7 % inh @ 1 μM. The method in brief:
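Asynchronous P. falciparum 3D7 cultures (0.5% parasitemia, 2% hematocrit) were exposed to serially diluted compounds, in quadruplicate. Growth was then quantified by SYBR Green I fluorescence after adding lysis buffer containing 0.2 μL/mL dye.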

For assay [2], the target named is Plasmepsin-2 (PM-2; Plm II) (Plasmodium falciparum (isolate HB3), UniProt P46925). Briefly: Plasmepsin-2 enzyme inhibition assay. Type of assay: biochemical. The conditions noted are these: read-out: PM-2 IC50. As to the method:
Plasmepsin-2 (PM-2; Plm II) and Plasmepsin (PM-4; Plm IV) expression and purification was performed following the published protocols (Istvan E S and Goldberg D E, 2005). The final purified protein was activated by diluting the protein to 0.3 mg/mL in activating buffer (0.1 M citrate pH 4.5, 0.1% Tween-20, 50 mM dithiothreitol) and incubated at room temperature for 40 min, then the activated enzyme was diluted in assay buffer (50 mM sodium acetate pH 4.7, 0.01% Tween-20). The enzymatic inhibition reaction was performed in 384 well plates with a total volume of 20 μl. 10 μl of diluted PM-2 or PM-4 enzyme was added to the 384-well plate except blank wells (blank wells add 10 μL of assay buffer) and 20 nL of serials of diluted 1000× compounds were added to the wells with 520 Echo® Liquid Handling System (Labcyte Inc.). 10 μL PM-2 peptide substrate (AnaSpec, Cat#, 62050) with assay buffer was then added to final concentration of 20 μM to start the reaction. After incubation the reaction at room temperature for 60 min, the fluorescence intensity at Ex/Em=360 nm/535 nm was measured using EnVision multilabel plate reader (Perkin-Elmer). The IC50 values were obtained using Graph Pad Prism 4 and are reported in Tables 8 and 9 below as PM-2 IC50 values.

The target in the next assay is recombinant human BACE1 (Homo sapiens, UniProt P56817). The assay is described as follows: β-Secretase (BACE1) enzyme inhibition FRET assay. Type of assay: biochemical. The conditions noted are these: Table 13; read-out: BACE1 IC50. As to the method:
The enzymatic inhibition activity assays were determined using the fluorescence resonance energy transfer (FRET) assay. The assays were performed in a 384-well plate format. […] CatD and CatE were activated by incubation in assay buffer (0.1 M NaOAc, 0.2 M NaCl, pH 3.5) at room temperature for 30 min. Subsequently, the rhBACE-1 substrate (R&D Systems, catalog# ES004), the Cathepsin D and Cathepsin E substrate (R&D Systems, Catalog # ES001) were added accordingly to final concentration 20 μM to initiate the reaction. After 60 min incubation at room temperature, the time-resolved fluorescence at Ex/Em=360 nm/460 nm was measured on an EnVision multilabel plate reader (Perkin-Elmer). The analytical software, GraphPad Prism 5.0 (GraphPad Software, Inc., USA) was used to generate IC50 values via non-linear regression analysis, which are reported in Tables 8-13 below as BACE1 IC50 values.

[3] abbreviates: 3D7, read-out: 3D7 IC50 (μM), Table 13.
Setting [4] is: 3D7, read-out: Pf3D7 IC50 (μM), Table 10.
Where [5] appears, read: 3D7, Table 13, read-out: 3D7 IC50.
The mark [6] stands for this setting: 3D7, Table 12, read-out: 3D7 IC50.

Broadly, the IC50 is the midpoint of a concentration-inhibition curve.

Chain of Plasmepsin-2 (PM-2; Plm II) (P46925 125-453 limits assumed): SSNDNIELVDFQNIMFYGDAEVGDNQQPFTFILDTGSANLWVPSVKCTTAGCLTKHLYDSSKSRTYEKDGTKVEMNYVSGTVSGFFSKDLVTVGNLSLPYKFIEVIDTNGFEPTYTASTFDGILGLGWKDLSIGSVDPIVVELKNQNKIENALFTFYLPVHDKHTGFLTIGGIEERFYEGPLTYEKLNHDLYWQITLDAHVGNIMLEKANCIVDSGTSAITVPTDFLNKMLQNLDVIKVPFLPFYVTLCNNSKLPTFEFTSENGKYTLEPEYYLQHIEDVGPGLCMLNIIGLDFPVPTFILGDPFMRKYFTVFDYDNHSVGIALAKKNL
Chain of recombinant human BACE1 (P56817 46-501 limits assumed): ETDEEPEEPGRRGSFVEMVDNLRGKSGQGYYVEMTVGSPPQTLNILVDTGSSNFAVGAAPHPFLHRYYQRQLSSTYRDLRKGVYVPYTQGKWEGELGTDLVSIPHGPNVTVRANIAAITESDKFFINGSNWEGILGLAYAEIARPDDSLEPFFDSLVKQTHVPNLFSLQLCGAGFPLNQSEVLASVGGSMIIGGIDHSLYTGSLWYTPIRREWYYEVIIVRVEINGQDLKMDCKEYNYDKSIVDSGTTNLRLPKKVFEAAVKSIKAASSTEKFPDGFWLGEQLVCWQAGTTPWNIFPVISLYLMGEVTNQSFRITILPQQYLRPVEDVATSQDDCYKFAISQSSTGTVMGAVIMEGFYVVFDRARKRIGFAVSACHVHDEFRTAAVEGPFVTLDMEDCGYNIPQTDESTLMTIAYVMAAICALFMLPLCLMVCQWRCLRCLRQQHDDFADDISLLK

In the case of `N=C1NC(c2ccccc2)(c2ccccc2)C(=O)N1C1CCCCC1` [Example 100, 3-cyclohexyl-2-imino-5,5-diphenyl-imidazolidin-4-one], the IC50 is 3.85 µM in assay [1] (setting [3]), 3.85 µM in assay [1] (setting [4]), 28.7 nM in assay [2] (Table 13) and above 10 µM on recombinant human BACE1.
Consider `COc1ccc(C2(c3ccc(OC)cc3)NC(=N)N(C3CC3)C2=O)cc1` [Example 158, 3-cyclopropyl-2-imino-5,5-bis(4-methoxyphenyl)-imidazolidin-4-one], for which the IC50 in assay [1] (setting [3]) was 4.11 µM; in assay [1] (setting [4]), 4.11 µM; in assay [2] (Table 13), 392 nM; on recombinant human BACE1, above 10 µM.
`COc1ccc(C2(c3ccc(OC)cc3)NC(=N)N(CC34CC5CC(CC(C5)C3)C4)C2=O)cc1` [Example 276, 3-(adamantan-1-ylmethyl)-2-imino-5,5-bis(4-methoxyphenyl)-imidazolidin-4-one]: the IC50 was 0.336 µM in assay [1] (setting [3]), 2 nM in assay [2] (Table 13) and 7.85 µM on recombinant human BACE1.
For `COc1ccc(C2(c3ccc(OC)cc3)NC(=N)N(Cc3ncccc3C)C2=O)cc1` [Example 302, 2-imino-5,5-bis(4-methoxyphenyl)-3-[(3-methylpyridin-2-yl)methyl]imidazolidin-4-one] the same measures were 1.07 µM, 48.8 nM and above 10 µM.
In the case of `COc1ccc(C2(c3ccc(OC)cc3)NC(=N)N(Cc3ccccc3C)C2=O)cc1` [Example 303, 2-imino-5,5-bis(4-methoxyphenyl)-3-[(2-methylphenyl)-methyl]imidazolidin-4-one], the 50% inhibitory concentration (IC50) came out at 1.01 µM in assay [1] (setting [5]) and 3.1 nM in assay [2] (Table 13).
With `COc1ccc(C2(c3ccc(OC)cc3)NC(=N)N(Cc3ccccc3C(F)(F)F)C2=O)cc1` [Example 304, 2-imino-5,5-bis(4-methoxyphenyl)-3-{[2-(trifluoromethyl)-phenyl]methyl}-imidazolidin-4-one], the IC50 stood at 1.34 µM in assay [1] (setting [5]) and 1.88 nM in assay [2] (Table 13).
With `COc1ccc(C2(c3ccc(OC)cc3)NC(=N)N(Cc3ccccc3C#N)C2=O)cc1` [Example 305, 2-{[2-imino-4,4-bis(4-methoxyphenyl)-5-oxoimidazolidin-1-yl]methyl}benzonitrile], the inhibition of growth at 1 µM in assay [1] came to 81%. Also, the values for the IC50 (in assay [2] (Table 13); at recombinant human BACE1) were 9.3 nM and 6.7 µM, respectively.
Regarding `COc1ccc(C2(c3ccc(OC)cc3)NC(=N)N(CC3CCN(C)CC3)C2=O)cc1` [Example 308, 2-imino-5,5-bis(4-methoxyphenyl)-3-[(1-methylpiperidin-4-yl)methyl]imidazolidin-4-one], the concentration for half-maximal inhibition (IC50) in assay [1] (setting [3]) is 0.677 µM; in assay [2] (Table 13), 75.4 nM; on recombinant human BACE1 it was above 10 µM.
Turning to `COc1ccc(C2(c3ccc(OC)cc3)NC(=N)N(C3CCN(C(C)=O)CC3)C2=O)cc1` [Example 310, 3-(1-acetylpiperidin-4-yl)-2-imino-5,5-bis(4-methoxyphenyl)imidazolidin-4-one], the inhibition of growth at 1 µM in assay [1] is 72%. The IC50 in assay [2] (Table 13) is 5.84 nM; on recombinant human BACE1, around 2.6 µM.
On the same counts, the results for `COc1ccc(C2(c3ccc(OC)cc3)NC(=N)N(C3CCN(C(=O)c4ccccc4)CC3)C2=O)cc1` [Example 311, 3-(1-benzoylpiperidin-4-yl)-2-imino-5,5-bis(4-methoxyphenyl)imidazolidin-4-one] are 81%, 2 nM and around 6.8 µM.
On the same counts, the results for `COc1ccc(C2(c3ccc(OC)cc3)NC(=N)N(CC3CCN(C(=O)OC(C)(C)C)CC3)C2=O)cc1` [Example 313, tert-butyl 4-{[2-imino-4,4-bis(4-methoxyphenyl)-5-oxoimidazolidin-1-yl]methyl}piperidine-1-carboxylate] are 27%, 11 nM and around 2.2 µM.
For `COc1ccc(C2(c3ccc(OC)cc3)NC(=N)N(C3CCN(C(=O)CCN(C)C)CC3)C2=O)cc1` [Example 322, 3-{1-[3-(dimethylamino)propanoyl]piperidin-4-yl}-2-imino-5,5-bis(4-methoxyphenyl)imidazolidin-4-one], the inhibition of growth at 1 µM in assay [1] amounted to 34%. Besides, the IC50 was 20.2 nM in assay [2] (Table 13) and above 10 µM on recombinant human BACE1.
For `COc1ccc(C2(c3cccnc3)NC(=N)N(C3CCOCC3)C2=O)cc1` (stereo not shown) [Example 323, 2-imino-5-(4-methoxyphenyl)-3-(oxan-4-yl)-5-(pyridin-3-yl)imidazolidin-4-one] the same measures were 31%, 74.3 nM and around 10 µM.
As for `COc1ccc(C2(C3CC3)NC(=N)N(C3CCOCC3)C2=O)cc1` (stereo not shown) [Example 325, 5-cyclopropyl-2-imino-5-(4-methoxyphenyl)-3-(oxan-4-yl)imidazolidin-4-one], the IC50 in assay [1] (setting [3]) was 0.752 µM; in assay [2] (Table 13), 426 nM; on recombinant human BACE1, above 10 µM.
In the case of `COc1cccc(-c2cccc(C3(c4ccccc4)NC(=N)N(C)C3=O)c2)c1` (stereo not shown) [Example 327, 2-imino-5-[3-(3-methoxyphenyl)phenyl]-3-methyl-5-phenyl-imidazolidin-4-one], the figures for the IC50 in assay [1] (setting [6]) and in assay [2] (Table 12) were 4.97 µM and 240 nM, respectively.
For `COc1cccc(-c2cccc(C3(C4CC4)NC(=N)N(C)C3=O)c2)c1` (stereo not shown) [Example 330, 5-cyclopropyl-2-imino-5-[3-(3-methoxyphenyl)-phenyl]-3-methyl-imidazolidin-4-one] the same measures were around 2.4 µM and 751 nM.
In the case of `COc1ccc(C2(C3CCCCC3)NC(=N)N(C3CCOCC3)C2=O)cc1` (stereo not shown) [Example 331, 5-cyclohexyl-2-imino-5-(4-methoxy-phenyl)-3-(oxan-4-yl)imidazolidin-4-one], the 50% inhibitory concentration (IC50) in assay [1] (setting [3]) was 0.354 µM; in assay [2] (Table 13) it was 58.1 nM; at recombinant human BACE1 it was around 10 µM.
In the case of `COc1ccc(C2(c3ccccn3)NC(=N)N(C3CCOCC3)C2=O)cc1` (stereo not shown) [Example 332, 2-imino-5-(4-methoxyphenyl)-3-(oxan-4-yl)-5-(pyridin-2-yl)-imidazolidin-4-one], the inhibition of growth at 1 µM in assay [1] was 25%. For the same compound, the half-maximal inhibitory concentration (IC50) in assay [2] (Table 13) is 216 nM; on recombinant human BACE1, above 10 µM.
Regarding `COc1ccc(C2(c3cncnc3)NC(=N)N(C3CCOCC3)C2=O)cc1` (stereo not shown) [Example 333, 2-imino-5-(4-methoxyphenyl)-3-(oxan-4-yl)-5-(pyrimidin-5-yl)imidazolidin-4-one], the inhibition of growth at 1 µM in assay [1] worked out at 9%. Further, the results for the IC50 (in assay [2] (Table 13); at recombinant human BACE1) were 639 nM and above 10 µM, respectively.
Turning to `COc1ccc(C2(c3ccncc3)NC(=N)N(C3CCOCC3)C2=O)cc1` (stereo not shown) [Example 334, 2-imino-5-(4-methoxyphenyl)-3-(oxan-4-yl)-5-(pyridin-4-yl)-imidazolidin-4-one], the inhibition of growth at 1 µM in assay [1] stood at 14%. In addition, the IC50 was 85.9 nM in assay [2] (Table 13) and above 10 µM on recombinant human BACE1.
Consider `COc1ccc(C2(C3CCCC3)NC(=N)N(C3CCOCC3)C2=O)cc1` (stereo not shown) [Example 335, 5-cyclopentyl-2-imino-5-(4-methoxy-phenyl)-3-(oxan-4-yl)imidazolidin-4-one], for which the IC50 in assay [1] (setting [3]) is 0.377 µM; in assay [2] (Table 13), 90.7 nM; at recombinant human BACE1 it was above 10 µM.
As for `COc1ccc(C2(c3cnn(C)c3)NC(=N)N(C3CCOCC3)C2=O)cc1` (stereo not shown) [Example 336, 2-imino-5-(4-methoxyphenyl)-5-(1-methyl-1H-pyrazol-4-yl)-3-(oxan-4-yl)-imidazolidin-4-one], in assay [1], the inhibition of growth at 1 µM was 70%. Moreover, the values for the IC50 (in assay [2] (Table 13); at recombinant human BACE1) were 395 nM and above 10 µM, respectively.
Turning to `COc1ccc(C2(C3CCCCC3)NC(=N)N(C3CCCCC3)C2=O)cc1` (stereo not shown) [Example 447, 3,5-dicyclohexyl-2-imino-5-(4-methoxyphenyl)imidazolidin-4-one], the IC50 in assay [1] (setting [3]) stood at 0.494 µM; in assay [2] (Table 13), 67.4 nM; on recombinant human BACE1, 17.3 µM.
Turning to `N=C1NC(c2cccc(-c3cccnc3)c2)(C2CC2)C(=O)N1C1CCOCC1` (stereo not shown) [Example 487, 5-cyclopropyl-2-imino-5-(3-(pyridin-3-yl)phenyl)-3-(tetrahydro-2H-pyran-4-yl)imidazolidin-4-one], the IC50 worked out at 0.248 µM in assay [1] (setting [3]), 512 nM in assay [2] (Table 13) and 8.65 µM at recombinant human BACE1.
